Data taken from patent publication US11944616B2 (INSTITUT NATIONAL DE LA SANTE ET DE LA RECHERCHE MEDICAL …, priority 2016, dated 2024).

Tested on: NMDAR
Test: NMDAR blocking activity using patch-clamp (whole-cell voltage clamp recordings from rat hippocampal neurons)
Assay type: cell-based
Conditions: currents evoked by 100 μM NMDA and 20 μM D-serine, clamped at −60 mV

SMILES	IC50
C[C@@]12c3ccccc3C[C@@H](c3ccccc31)[N@@+]2(C)CC1CC1 [Compound No 5]	0.4 µM
C[C@@]12c3ccccc3C[C@@H](c3ccccc31)[N@@+]2(C)CC1CCCC1 [Compound No 6]	1.1 µM
CC(C)C[N@+]1(C)[C@H]2Cc3ccccc3[C@]1(C)c1ccccc12 [Compound No 4]	0.82 µM
CC[N@+]1(C)[C@H]2Cc3ccccc3[C@]1(C)c1ccccc12 [Compound No 2]	0.57 µM
CCCC[N@+]1(C)[C@H]2Cc3ccccc3[C@]1(C)c1ccccc12 [Compound No 3]	0.5 µM

Same assay, conditions: currents evoked by 100 μM NMDA and 20 μM D-serine, clamped at −60 mV, read-out: IC50

SMILES	IC50
C[C@@]12c3ccccc3C[C@@H](c3ccccc31)[N+]2(C)C [Compound No 1]	0.65 µM
CC[N@@+]1(CC2CC2)[C@H]2Cc3ccccc3[C@]1(C)c1ccccc12 [Compound No 31]	0.27 µM
CC[N@@+]1(CCO)[C@H]2Cc3ccccc3[C@]1(C)c1ccccc12 [Compound No 26]	0.4 µM
CC[N@@+]1(CCO)[C@H]2Cc3ccccc3[C@]1(C)c1ccccc12 (racemic) [Compound No 27]	0.36 µM

Tested on: not given
Test: not given
Conditions: not given

SMILES	melting point
CC(C)CC[N@+]1(C)[C@H]2Cc3ccccc3[C@]1(C)c1ccccc12	215 to 217 °C
CC[N@@+]1(CC2CC2)[C@@H]2Cc3ccccc3[C@@]1(C)c1ccccc12	180 to 181 °C
COc1ccc(C[N@+]2(C)[C@H]3Cc4ccccc4[C@]2(C)c2ccccc23)cc1	101 to 103 °C
C[C@@]12c3ccccc3C[C@@H](c3ccccc31)[N@@+]2(C)Cc1ccc(Cl)cc1	160 to 162 °C
CC[N+]1(CC)[C@@H]2Cc3ccccc3[C@@]1(C)c1ccccc12	218 to 219 °C
C[C@@]12c3ccccc3C[C@@H](c3ccccc31)[N@@+]2(C)CC#N	147 to 149 °C
C[C@@]12c3ccccc3C[C@@H](c3ccccc31)[N@@+]2(C)CC1CC1 [Compound No 5]	103 to 105 °C
C[C@@]12c3ccccc3C[C@@H](c3ccccc31)[N@@+]2(C)Cc1ccc(F)cc1	92 to 94 °C
CCC[N@@+]1(CCO)[C@@H]2Cc3ccccc3[C@@]1(C)c1ccccc12	221 to 222 °C
C[C@@]12c3ccccc3C[C@@H](c3ccccc31)[N@@+]2(C)CC1CCCC1 [Compound No 6]	125 to 127 °C
CC(C)C[N@+]1(C)[C@H]2Cc3ccccc3[C@]1(C)c1ccccc12 [Compound No 4]	216 to 217 °C
C#CC[N@@+]1(CC2CC2)[C@@H]2Cc3ccccc3[C@@]1(C)c1ccccc12	168 to 169 °C
CCCC[N@@+]1(CC2CC2)[C@@H]2Cc3ccccc3[C@@]1(C)c1ccccc12	171 to 172 °C
C[C@@]12c3ccccc3C[C@@H](c3ccccc31)[N@@+]2(C)CC1CCCCC1	220 to 222 °C
CC[N@@+]1(CCCCO)[C@@H]2Cc3ccccc3[C@@]1(C)c1ccccc12	201 to 202 °C
C[C@]12c3ccccc3C[C@H](c3ccccc31)[N@@+]2(CCO)CC1CC1	179 to 180 °C
CC(C)(C)c1ccc(C[N@+]2(C)[C@H]3Cc4ccccc4[C@]2(C)c2ccccc23)cc1	152 to 154 °C
C[C@@]12c3ccccc3C[C@@H](c3ccccc31)[N@@+]2(C)Cc1ccccc1	220 to 222 °C
C[C@@]12c3ccccc3C[C@@H](c3ccccc31)[N+]2(C)C [Compound No 1]	270 to 280 °C
C[C@@]12c3ccccc3C[C@@H](c3ccccc31)[N@@+]2(C)CC(N)=O	189 to 192 °C
CCCCCC[N@+]1(C)[C@H]2Cc3ccccc3[C@]1(C)c1ccccc12	200 to 203 °C
CC[N@+]1(C)[C@H]2Cc3ccccc3[C@]1(C)c1ccccc12 [Compound No 2]	230 to 232 °C
CCC[N@+]1(C)[C@H]2Cc3ccccc3[C@]1(C)c1ccccc12	214 to 217 °C

SMILES	melting point
CCC(C)C[N@+]1(C)[C@H]2Cc3ccccc3[C@]1(C)c1ccccc12 (stereo partly shown)	181 to 184 °C
CCC[N@@+]1(CC2CC2)[C@@H]2Cc3ccccc3[C@@]1(C)c1ccccc12	203 to 204 °C
C=CC[N@@+]1(CCO)[C@@H]2Cc3ccccc3[C@@]1(C)c1ccccc12	196 to 197 °C
CC[N@@+]1(CC2CC2)[C@H]2Cc3ccccc3[C@]1(C)c1ccccc12 [Compound No 31]	189 to 191 °C
C[C@@]12c3ccccc3C[C@@H](c3ccccc31)[N@@+]2(C)CC1CCC1	159 to 162 °C
CC[N@@+]1(CCO)[C@H]2Cc3ccccc3[C@]1(C)c1ccccc12 [Compound No 32]	115 to 120 °C
CC[N@@+]1(CCO)[C@H]2Cc3ccccc3[C@]1(C)c1ccccc12 [Compound No 26]	202 to 205 °C
C[C@@]12c3ccccc3C[C@@H](c3ccccc31)[N@@+]2(C)CC1(c2ccc(Cl)cc2)CC1	162 to 164 °C
Cc1ccc(C[N@+]2(C)[C@H]3Cc4ccccc4[C@]2(C)c2ccccc23)cc1	134 to 136 °C
C[C@@]12c3ccccc3C[C@@H](c3ccccc31)[N@@+]2(C)CC1(c2ccccc2)CC1	174 to 176 °C
COCC[N@+]1(C)[C@@H]2Cc3ccccc3[C@@]1(C)c1ccccc12	162 to 163 °C
CC[N+]1(CC)[C@H]2Cc3ccccc3[C@]1(C)c1ccccc12	237 to 238 °C
CCCC[N@@+]1(CCO)[C@@H]2Cc3ccccc3[C@@]1(C)c1ccccc12	196 to 197 °C
C[C@@]12c3ccccc3C[C@@H](c3ccccc31)[N@@+]2(C)Cc1ccccc1Cl	129 to 131 °C
CCCC[N@+]1(C)[C@H]2Cc3ccccc3[C@]1(C)c1ccccc12 [Compound No 3]	200 to 203 °C
CC[N@@+]1(CCO)[C@H]2Cc3ccccc3[C@]1(C)c1ccccc12 (racemic) [Compound No 27]	205 to 208 °C
CC(=O)NCC[N@+]1(C)[C@H]2Cc3ccccc3[C@]1(C)c1ccccc12	216 to 218 °C
Cc1ccccc1C[N@+]1(C)[C@H]2Cc3ccccc3[C@]1(C)c1ccccc12	101 to 103 °C
C=CC[N@@+]1(CC2CC2)[C@@H]2Cc3ccccc3[C@@]1(C)c1ccccc12	131 to 132 °C
C[C@@]12c3ccccc3C[C@@H](c3ccccc31)[N@@+]2(C)CCO	216 to 219 °C
C[C@@]12c3ccccc3C[C@@H](c3ccccc31)[N@@+]2(C)Cc1cccc(C(F)(F)F)c1	167 to 170 °C
C#CC[N@@+]1(CCO)[C@@H]2Cc3ccccc3[C@@]1(C)c1ccccc12	201 to 202 °C

Tested on: not listed separately
Test: In vivo brain penetration measurement (brain/plasma ratio Kp"brain") in rat
Conditions: brain (without cerebellum) and plasma; male Sprague-Dawley rat, 3.45 h constant-rate intravenous infusion, 4 mg/kg, mean of 3 rats ± standard deviation; read-out: Kp"brain" (total brain/plasma concentration ratio at steady state)
Description: The femoral vein of male Sprague-Dawley rats (CRL) weighing around 250 g was surgically catheterized at least 72 hours prior to the experiment. 3 animals were performed for each compound tested. The drug was administered as 3.45 h constant-rate intravenous infusion to approach steady state, using a flow rate of 0.8 mL/h, corresponding to dosage of 4 mg/kg (1.067 mg/kg/h, i.e. 1 mg/rat of ˜250 g). The vehicle used was saline.
At the end of the infusion, the rats were anesthetized by inhalation of isoflurane, and blood was collected in a heparinized tube from the abdominal aorta, followed by immediate rinsing of the bloodstream for 2 minutes with saline at a rate of 15 mL/min using a peristaltic pump and left intraventricle cannula (flowing via right atrium). The brain (without cerebellum) was removed, and transferred in a tube and homogenized in two volumes of deionized water using a tissue homogenizer (Precellys24). All samples were stored at −20° C. until analysis. Plasma and brain homogenate sample preparation was performed using solid phase extraction on OASIS® WCX (Waters) and compounds were quantified by reversed phase liquid chromatography and positive electrospray ionization and multiple reaction monitoring mass spectrometry (LC-MS/MS).
This parameter is defined as the ratio of concentrations in brain and blood, Kp“brain” (Cbrain/Cplasma) or log(BB). Log(BB) is the logarithm of the ratio of the steady-state total concentration of a compound in the brain to that in the blood/plasma, log(BB)=log(Cbrain/Cplasma). This parameter depends upon the passive diffusion characteristics, the implication of membrane transporters at the BBB level and the relative drug binding affinity differences between the plasma proteins and brain tissue.

SMILES	Kp at 3.45 h
C[C@@]12c3ccccc3C[C@@H](c3ccccc31)[N+]2(C)C [Compound No 1]	0.3 ± 0.03
CC[N@@+]1(CCO)[C@H]2Cc3ccccc3[C@]1(C)c1ccccc12 [Compound No 26]	0.4 ± 0.08

Same assay, conditions: rat, conclusion from Kp"brain" values

SMILES	CNS / BBB penetration (in words)
C[C@@]12c3ccccc3C[C@@H](c3ccccc31)[N+]2(C)C [Compound No 1]	do not penetrate the CNS
CC[N@@+]1(CCO)[C@H]2Cc3ccccc3[C@]1(C)c1ccccc12 [Compound No 26]	do not penetrate the CNS
